# Data: ChEMBL document CHEMBL5500381, “Antiviral drug discovery: Pyrimidine entry inhibitors for Zika and dengue viruses” (Eur J Med Chem, 2024)
# Active and inactive are the calls of the source. No cut-off for these calls is given here.
# Assays:
# [1] = Cytotoxicity against African green monkey Vero cells assessed as cell viability measured after 72 hrs by MTT assay; assay type: toxicity, cell-based; conditions: chlorocebus sabaeus
# dengue virus type 2 [2] = assay: Anti-viral activity against DENV-2 Thailand/16681/1984 strain infected in african green monkey Vero cells at 0.1 MOI assessed as reduction in virus yield measured after 48 hrs by virus reduction assay; assay type: functional, organism-based; conditions: Thailand/16681/1984, Vero
# [3] = Selectivity index, ratio of CC50 for cytotoxicity against African green monkey Vero cells to EC50 for anti-viral activity against DENV-2 Thailand/16681/1984 strain; assay type: toxicity, cell-based; conditions: read-out: Selectivity Index
# Zika virus [4] = assay: Anti-viral activity against ZIKV Argentine strain INEVH116141 infected in african green monkey Vero cells at 0.1 MOI assessed as reduction in virus yield measured after 48 hrs by virus reduction assay; assay type: functional, organism-based
# [5] = Selectivity index, ratio of CC50 for cytotoxicity against African green monkey Vero cells to EC50 for anti-viral activity against ZIKV Argentine strain INEVH116141; assay type: toxicity, cell-based; conditions: read-out: Selectivity Index
# dengue virus type 2 [6] = assay: Anti-viral activity against DENV-2 Thailand/16681/1984 strain infected in african green monkey Vero cells assessed as reduction in genome level at 10 uM measured after 48 hrs by QRT-PCR analysis; assay type: functional, organism-based
# Zika virus [7] = assay: Anti-viral activity against ZIKV Argentine strain INEVH116141 infected in african green monkey Vero cells assessed as reduction in genome level at 10 uM measured after 48 hrs by QRT-PCR analysis; assay type: functional, organism-based
# dengue virus type 2 [8] = assay: Anti-viral activity against DENV-2 Thailand/16681/1984 strain infected in african green monkey Vero cells at 0.1 MOI assessed as reduction in fluorescence at 10 uM measured after 48 hrs by epifluorescence microscopy; assay type: functional, organism-based
# Zika virus [9] = assay: Anti-viral activity against ZIKV Argentine strain INEVH116141 infected in african green monkey Vero cells at 0.1 MOI assessed as reduction in […] at 10 uM measured after 48 hrs by epifluorescence microscopy; assay type: functional, organism-based
# dengue virus type 2 [10] = assay: Anti-viral activity against DENV-2 Thailand/16681/1984 strain infected in african green monkey Vero cells at 0.1 MOI assessed as reduction in fluorescence at 10 uM measured for first 8 hrs by plaque assay; assay type: functional, organism-based
# Zika virus [11] = assay: Anti-viral activity against ZIKV Argentine strain INEVH116141 infected in african green monkey Vero cells at 0.1 MOI assessed as reduction in […] at 10 uM measured for first 8 hrs by plaque assay; assay type: functional, organism-based
# dengue virus type 2 [12] = assay: Anti-viral activity against DENV-2 Thailand/16681/1984 strain infected in african green monkey Vero cells at 0.1 MOI assessed as reduction in fluorescence at 10 uM measured for 10 to 12 hrs by plaque assay; assay type: functional, organism-based; conditions: time 10-12 hrs
# Zika virus [13] = assay: Anti-viral activity against ZIKV Argentine strain INEVH116141 infected in african green monkey Vero cells at 0.1 MOI assessed as reduction in […] at 10 uM measured for 10 to 12 hrs by plaque assay; assay type: functional, organism-based; conditions: time 10-12 hrs
# dengue virus type 2 [14] = assay: Virucidal effect in DENV-2 Thailand/16681/1984 strain assessed as inactivation of virus at 2.5 to 10 uM measured after 1.5 hrs incubation by viral inactivation assay; assay type: functional, organism-based; conditions: dose 2.5-10 µM
# Zika virus [15] = assay: Virucidal effect in ZIKV Argentine strain INEVH116141 strain assessed as inactivation of virus at 2.5 to 10 uM measured after 1.5 hrs incubation by viral inactivation assay; assay type: functional, organism-based; conditions: dose 2.5-10 µM
# dengue virus type 2 [16] = assay: Anti-viral activity against DENV-2 Thailand/16681/1984 strain infected in African green monkey Vero cells at 0.1 MOI assessed as reduction in viral titer at 10 uM pre-treated for 2 hrs before cellular infection followed by infection 1 hr incubated with compound free culture medium for 48 hrs; assay type: functional, organism-based
# dengue virus type 2 [17] = assay: Anti-viral activity against DENV-2 Thailand/16681/1984 strain infected in African green monkey Vero cells at 0.1 MOI assessed as reduction in viral titer at 10 uM pre-treated for 4 hrs before cellular infection followed by infection 1 hr incubated with compound free culture medium for 48 hrs; assay type: functional, organism-based
# Zika virus [18] = assay: Anti-viral activity against ZIKV Argentine strain INEVH116141 infected in African green monkey Vero cells at 0.1 MOI assessed as reduction in viral titer at 10 uM pre-treated for 2 hrs before cellular infection followed by infection 1 hr incubated with compound free culture medium for 48 hrs; assay type: functional, organism-based
# Zika virus [19] = assay: Anti-viral activity against ZIKV Argentine strain INEVH116141 infected in African green monkey Vero cells at 0.1 MOI assessed as reduction in viral titer at 10 uM pre-treated for 4 hrs before cellular infection followed by infection 1 hr incubated with compound free culture medium for 48 hrs; assay type: functional, organism-based
# dengue virus type 2 [20] = assay: Inhibition of DENV-2 Thailand/16681/1984 strain infection in African green monkey Vero cells assessed as absorption treated with compound for 1 hr during infection at 4 degC; assay type: functional, organism-based
# Zika virus [21] = assay: Inhibition of ZIKV Argentine strain INEVH116141 infection in African green monkey Vero cells assessed as absorption treated with compound for 1 hr during infection at 4 degC; assay type: functional, organism-based
# dengue virus type 2 [22] = assay: Inhibition of DENV-2 Thailand/16681/1984 strain infection in African green monkey Vero cells assessed as internalization (INT) treated after 1 hr post infection measured after 24 to 48 hrs; assay type: functional; conditions: time 24-48 hrs
# dengue virus type 2 [23] = assay: Inhibition of DENV-2 Thailand/16681/1984 strain infection in African green monkey Vero cells assessed as post-internalization (Post-INT) treated after 2 hr post infection measured after 24 hrs; assay type: functional
# dengue virus type 2 [24] = assay: Inhibition of DENV-2 Thailand/16681/1984 strain infection in African green monkey Vero cells assessed as post-internalization (Post-INT) treated after 2 hr post infection measured after 48 hrs; assay type: functional
# Zika virus [25] = assay: Inhibition of ZIKV Argentine strain INEVH116141 infection in African green monkey Vero cells assessed as internalization (INT) treated after 1 hr post infection measured after 24 hrs; assay type: functional
# Zika virus [26] = assay: Inhibition of ZIKV Argentine strain INEVH116141 infection in African green monkey Vero cells assessed as internalization (INT) treated after 1 hr post infection measured after 48 hrs; assay type: functional
# Zika virus [27] = assay: Inhibition of ZIKV Argentine strain INEVH116141 infection in African green monkey Vero cells assessed as post-internalization (Post-INT) treated after 2 hr post infection measured after 24 hrs; assay type: functional
# Zika virus [28] = assay: Inhibition of ZIKV Argentine strain INEVH116141 infection in African green monkey Vero cells assessed as post-internalization (Post-INT) treated after 2 hr post infection measured after 48 hrs; assay type: functional
# [29] = Solubility of the compound in phosphate-buffered saline solution (PBS,pH 7.4) incubated for 24 hrs by shake-flask method; assay type: physicochemical
# [30] = Solubility of the compound in simulated intestinal fluid (SIF,pH 6.8) incubated for 24 hrs by shake-flask method; assay type: ADME
# [31] = Solubility of the compound in simulated gastric fluid (SGF,pH 1.2) incubated for 24 hrs by shake-flask method; assay type: ADME
# [32] = Permeability of the compound by PAMPA assay; assay type: ADME
# [33] = Plasma stability in human plasma measured at 4 hrs; assay type: ADME, cell-free
# [34] = Plasma stability in mouse plasma measured at 4 hrs; assay type: ADME, cell-free
# [35] = Plasma stability in human plasma measured after 24 hrs relative to control; assay type: ADME, cell-free; conditions: read-out: Activity
# [36] = Metabolic stability in mouse liver microsomes assessed as half life at 3 uM in presence of NADPH by HPLC-MS analysis; assay type: ADME, Microsome
# [37] = Metabolic stability in mouse liver microsomes assessed as intrinsic clearance at 3 uM in presence of NADPH by HPLC-MS analysis; assay type: ADME, Microsome
# [38] = Metabolic stability in mouse liver microsomes assessed as degradation at 3 uM in presence of NADPH measured upto 45 mins by HPLC-MS analysis; assay type: ADME, Microsome; conditions: read-out: CLH
compound,measurement,setting,value
CC1(C)CC(Nc2nccc(NCc3ccc(Cl)cc3)n2)CC(C)(C)N1,CC50 at 72 h,[1],7.2 µM
same,EC50,dengue virus type 2 [2],4.67 µM
same,selectivity ratio,[3],1.54
same,EC50,Zika virus [4],8.14 µM
same,selectivity ratio,[5],0.88
N#Cc1cc(Nc2ccc(-c3ccccc3)cc2)nc(NCCN2CCCCC2)n1,CC50 at 72 h,[1],25.4 µM
same,EC50,dengue virus type 2 [2],8.06 µM
same,selectivity ratio,[3],3.15
same,EC50,Zika virus [4],4.31 µM
same,selectivity ratio,[5],5.89
CC1(C)CC(Nc2nc(C#N)cc(Nc3ccc(-c4ccccc4)cc3)n2)CC(C)(C)N1,CC50 at 72 h,[1],7.5 µM
same,EC50,dengue virus type 2 [2],1.96 µM
same,selectivity ratio,[3],3.82
same,EC50,Zika virus [4],4.4 µM
same,selectivity ratio,[5],1.7
Cc1ccc(CNc2cc(C(F)(F)F)nc(NCCN3CCCCC3)n2)cc1,CC50 at 72 h,[1],49 µM
same,EC50,dengue virus type 2 [2],> 20 µM
same,selectivity ratio,[3],< 2.5
same,EC50,Zika virus [4],13.5 µM
same,selectivity ratio,[5],3.63
O=C(Nc1cc(C(F)(F)F)nc(NCCN2CCCCC2)n1)c1ccc(Cl)cc1,CC50 at 72 h,[1],20.8 µM
same,EC50,dengue virus type 2 [2],> 20 µM
same,selectivity ratio,[3],< 1.05
same,EC50,Zika virus [4],> 20 µM
same,selectivity ratio,[5],< 1.05
FC(F)(F)c1cc(NCc2ccc(Cl)cc2)nc(NCCN2CCCCC2)n1,CC50 at 72 h,[1],23.8 µM
same,EC50,dengue virus type 2 [2],1.16 µM
same,selectivity ratio,[3],20.5
same,EC50,Zika virus [4],2.61 µM
same,selectivity ratio,[5],9.13
same,Activity,dengue virus type 2 [6],Active
same,Activity,Zika virus [7],Active
same,Activity,dengue virus type 2 [8],Active
same,Activity,Zika virus [9],Active
same,Activity,dengue virus type 2 [10],Active
same,Activity,Zika virus [11],Active
same,Activity,dengue virus type 2 [12],Active
same,Activity,Zika virus [13],Active
same,Activity,dengue virus type 2 [14],inactive
same,Activity,Zika virus [15],inactive
same,Activity,dengue virus type 2 [16],Active
same,Activity,dengue virus type 2 [17],Active
same,Activity,Zika virus [18],inactive
same,Activity,Zika virus [19],Active
same,inhibition,dengue virus type 2 [20],inactive
same,inhibition,Zika virus [21],inactive
same,inhibition (INH),dengue virus type 2 [22],<50%
same,inhibition (INH),dengue virus type 2 [23],73.2%
same,inhibition (INH),dengue virus type 2 [24],85.52%
same,inhibition (INH),Zika virus [25],26.36%
same,inhibition (INH),Zika virus [26],29.22%
same,inhibition (INH),Zika virus [27],44.86%
same,inhibition (INH),Zika virus [28],43.7%
same,solubility thermodynamic at 24 h,[29],507 µg/mL
same,solubility thermodynamic at 24 h,[30],1690 µg/mL
same,solubility thermodynamic at 24 h,[31],76 µg/mL
same,permeability,[32],Permeable
same,Stability,[33],Stable
same,Stability,[34],Stable
same,remaining at 24 h,[35],20%
same,half-life at 3 µM,[36],8.6 min
same,CLH,[37],179 µL/min
same,microsomal CLint at 3 µM,[38],179 µL/min/mg
